Laboratory results published in patent US20090240027A1, “INTERMEDIATES FOR MACROCYCLIC COMPOUNDS” (Tranzyme Pharma Inc., priority 2003, published 2009).
Where two headings read alike, the source gives them in different places.

Assays:
[1] = molecular target: human motilin receptor (Homo sapiens, UniProt O43193); test: Competitive radioligand binding assay (Method B1); parameters: purchased PerkinElmer 6110544; host or cells: CHO cells, stably transfected (membranes)
Experimental: Competitive Radioligand Binding Assay (Motilin Receptor)
• Membranes were prepared from CHO cells stably transfected with the human motilin receptor and utilized at a quantity of 1.5 μg/assay point.
Final Test Concentrations (N=11) for Compounds:
Compounds were provided frozen on dry ice at a stock concentration of 10 mM diluted in 100% DMSO and stored at −20° C. until the day of testing. On the test day, compounds were allowed to thaw at room temperature and than diluted in assay buffer according to the desired test concentrations. Under these conditions, the maximum final DMSO concentration in the assay was 0.5%.
Plates are sealed with TopSeal-A, vortexed gently and incubated at room temperature for 2 hours. The reaction is arrested by filtering samples through pre-soaked (0.3% polyethyleneimine, 2 h) Multiscreen Harvest plates using a Tomtec® Harvester (Tomtec, Hamden, Conn.)), washed 9 times with 500 μL of cold 50 mM Tris-HCl (pH 7.4), and than plates are air-dried in a fumehood for 30 minutes. A bottom seal is applied to the plates prior to the addition of 25 μL of MicroScint-0™ to each well.
Data are analyzed by GraphPad™ Prism (GraphPad Software, San Diego, Calif.) using a variable slope non-linear regression analysis.
where total and non-specific binding represent the cpm obtained in the absence or presence of 1 μM motilin, respectively.

[2] = molecular target: T1, motilin receptor (Oryctolagus cuniculus, UniProt G1T803); test: Rabbit duodenum contractility assay (Method B4)
T1 construct: Duodenal segments were vertically suspended in organ chambers; from tissue; host or cells: rabbit duodenum segments
Experimental: Compounds of the present invention have shown significant antagonist activity in this assay.
Rabbit Duodenum Contractility Assay
Duodenal segments were vertically suspended in organ chambers of 10 mL filled with Krebs buffer and connected to an isotonic force transducer, with a preload of 1 g. After a stabilization period, the muscle strips were challenged with 10^−4 M acetylcholine and washed. This was repeated until a stable maximal contraction was obtained (2-3 times), with an interval of at least 20 minutes.
After a stable base line was reached, test compounds were added to the bath. After 15 min incubation, a dose response to motilin was recorded by adding logarithmically increasing concentrations of motilin to the bath (final concentration 10^−9 to 10^−6 M). A blank experiment (no test compound present) was also performed. At the end of the dose response curve, a supramaximal dose of acetylcholine (10^−4 M) was given and this response was used as a reference (100% contraction).
The results of experiments at different concentrations of test compound were combined and analyzed to derive the pA2 value from the Schild plot.

[3] = Radioligand competitive binding assay, Method B1, values reported as ranges, read-out: Ki (binding activity)

Chain of human motilin receptor (O43193 whole entry): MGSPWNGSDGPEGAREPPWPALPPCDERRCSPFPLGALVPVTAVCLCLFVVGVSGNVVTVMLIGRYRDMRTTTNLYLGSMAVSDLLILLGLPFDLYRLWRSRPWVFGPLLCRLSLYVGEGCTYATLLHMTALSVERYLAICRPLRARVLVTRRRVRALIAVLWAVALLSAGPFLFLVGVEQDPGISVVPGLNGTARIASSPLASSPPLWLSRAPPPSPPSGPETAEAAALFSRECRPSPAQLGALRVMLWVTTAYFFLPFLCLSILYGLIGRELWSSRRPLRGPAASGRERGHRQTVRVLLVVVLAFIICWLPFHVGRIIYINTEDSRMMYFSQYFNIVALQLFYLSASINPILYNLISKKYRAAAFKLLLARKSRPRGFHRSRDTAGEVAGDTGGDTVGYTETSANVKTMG
T1 sequence (G1T803 1-400): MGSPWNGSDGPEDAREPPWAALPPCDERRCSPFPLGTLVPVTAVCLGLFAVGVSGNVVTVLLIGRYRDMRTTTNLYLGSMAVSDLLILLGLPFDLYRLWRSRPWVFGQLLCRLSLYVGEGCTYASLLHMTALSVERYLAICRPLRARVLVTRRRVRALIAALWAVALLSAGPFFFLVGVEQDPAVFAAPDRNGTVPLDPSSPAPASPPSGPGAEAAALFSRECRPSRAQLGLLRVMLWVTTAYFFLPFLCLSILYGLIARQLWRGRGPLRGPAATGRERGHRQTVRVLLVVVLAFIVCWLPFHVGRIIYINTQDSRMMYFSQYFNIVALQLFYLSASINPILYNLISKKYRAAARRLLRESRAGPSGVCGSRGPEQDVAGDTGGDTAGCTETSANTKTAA

With `CCCC1NC(=O)C(C(C)C)NC(=O)C(Cc2ccc(O)cc2)NCCOc2ccccc2C=CCNC1=O` (stereo not shown) [Compound 1] the Ki ([1]; [125I]-motilin competition, CHO cell membranes with human motilin receptor, read-out: Binding activity (Ki)) was 100 to 1000 nM.
With `CCC[C@H](NC(=O)[C@H](NC(=O)[C@@H](Cc1ccc(O)cc1)NCCOc1ccccc1/C=C/CNC(C)=O)C(C)C)C(N)=O` [Compound 121] the Binding activity ([1]; result in words, linear analogue of compound 1) was “lack of binding activity”.
`CCCC1NC(=O)C(C(C)C)NC(=O)C(Cc2ccc(O)cc2)NCCCNCCNC1=O` (stereo not shown) [Compound 98] gave a Ki [1, 3] of 1000 to 10000 nM.
`CCCC1NC(=O)C(CC)NC(=O)C(Cc2ccc(O)cc2)NCCOc2ccccc2CCCNC1=O` (stereo not shown) [Compound 18] was tested, and the Ki [1, 3] was 100 to 1000 nM.
Compound `CC(C)CC1NC(=O)C(C(C)C)NC(=O)C(Cc2ccccc2)NCCOc2ccccc2C=CCNC1=O` (stereo not shown) [Compound 20] has a Ki [1, 3] of 100 to 1000 nM.
`CCCCC1NC(=O)C(Cc2ccc(O)cc2)NCCOc2ccccc2C=CCNC(=O)C(CCC)NC1=O` (stereo not shown) [Compound 77] showed a Ki [1, 3] of 1000 to 10000 nM.
`CC(C)C[C@@H]1NC(=O)[C@@H](C(C)C)NC(=O)[C@@H](Cc2ccc(O)cc2)NCCOc2ccccc2/C=C/CNC1=O` [Compound 10] gave a Ki [1, 3] of 1 to 100 nM.
For `CC(C)C1NC(=O)C(Cc2ccc(O)cc2)NCCOc2ccccc2C=CCNC(=O)C(CO)NC1=O` (stereo not shown) [Compound 57], the Ki [1, 3] was 100 to 1000 nM.
In the case of `CCCC1NC(=O)C(C(C)C)NC(=O)C(Cc2ccccc2Cl)NCCOc2ccccc2CCCNC1=O` (stereo not shown) [Compound 25], the Ki [1, 3] is reported as 100 to 1000 nM.
`CCCC1NC(=O)C(C(C)C)NC(=O)C(Cc2ccccc2OC)NCCOc2ccccc2CCCNC1=O` (stereo not shown) [Compound 166] gave a Ki [1, 3] of 100 to 1000 nM.
`CC(C)C1NC(=O)C(Cc2ccc(O)cc2)NCCOc2ccccc2C=CCNC(=O)C(c2ccccc2)NC1=O` (stereo not shown) [Compound 52] gave a Ki [1, 3] of 100 to 1000 nM.
Compound `CCCC1NC(=O)C(Cc2ccc3ccccc3c2)NC(=O)C(Cc2ccc(O)cc2)NCCOc2ccccc2C=CCNC1=O` (stereo not shown) [Compound 76] has a Ki [1, 3] of 1000 to 10000 nM.
`CCC[C@@H]1NC(=O)[C@@H](C(C)C)NC(=O)[C@@H](Cc2cccc3ccccc23)NCCOc2ccccc2CCCNC1=O` [Compound 23] showed a Ki [1, 3] of 1 to 100 nM.
Compound `CCCC1NC(=O)C(CCC)NC(=O)C(Cc2ccc(O)cc2)NCCOc2ccccc2CCCNC1=O` (stereo not shown) [Compound 91] has a Ki [1, 3] of 1000 to 10000 nM.
`CC(C)C1NC(=O)C(Cc2cccc3ccccc23)NCCOc2ccccc2CCCNC(=O)C(CN)NC1=O` (stereo not shown) [Compound 153] was tested, and the Ki [1, 3] was 100 to 1000 nM.
For `CC(C)[C@H]1NC(=O)[C@@H](Cc2ccc(Cl)cc2)NCCOc2ccccc2CCCNC(=O)[C@H](CN)NC1=O` [Compound 156], the Ki [1, 3] was 1 to 100 nM.
With `COc1ccc(CC2NCCOc3ccccc3CCCNC(=O)C(CN)NC(=O)C(C(C)C)NC2=O)cc1` (stereo not shown) [Compound 152] the Ki [1, 3] was 100 to 1000 nM.
In the case of `CC(C)CC1NC(=O)C(C(C)C)NC(=O)C(Cc2cccc3ccccc23)NCCOc2cccnc2CCCNC1=O` (stereo not shown) [Compound 136], the Ki [1, 3] is reported as 100 to 1000 nM.
`CC(C)C1NC(=O)C(Cc2ccc(F)cc2)NCCOc2ccccc2CCCNC(=O)C(CN)NC1=O` (stereo not shown) [Compound 157] was tested, and the Ki [1, 3] was 100 to 1000 nM.
For `CC(C)C1NC(=O)C(Cc2ccc(O)cc2)NCCOc2ccccc2C=CCNC(=O)C(Cc2ccc3ccccc3c2)NC1=O` (stereo not shown) [Compound 72], the Ki [1, 3] was 100 to 1000 nM.
`CC(C)C[C@@H]1NC(=O)[C@@H](C(C)C)NC(=O)[C@@H](Cc2ccc(Cl)cc2)NCCOc2ccccc2CCCNC1=O` [Compound 132] showed a Ki [1, 3] of 1 to 100 nM.
`CC(C)CC1NC(=O)C(C(C)C)NC(=O)C(Cc2cccs2)NCCOc2cccnc2CCCNC1=O` (stereo not shown) [Compound 137] gave a Ki [1, 3] of 100 to 1000 nM.
Compound `COc1ccc(C[C@H]2NCCOc3ccccc3CCCNC(=O)[C@H](CC3CC3)NC(=O)[C@@H](C(C)C)NC2=O)cc1` [Compound 141] has a Ki [1, 3] of 1 to 100 nM.
Compound `CCC[C@@H]1NC(=O)[C@@H](C(C)C)NC(=O)[C@@H](Cc2cccc(OC)c2)NCCOc2ccccc2CCCNC1=O` [Compound 165] has a Ki [1, 3] of 1 to 100 nM and a Kb [2] of 67.6 nM.
Compound `CCCC1NC(=O)C(C(C)C)NC(=O)C(CCc2ccccc2)NCCOc2ccccc2CCCNC1=O` (stereo not shown) [Compound 89] has a Ki [1, 3] of 1000 to 10000 nM.
Compound `CCC[C@@H]1NC(=O)[C@@H](C(C)C)NC(=O)[C@@H](Cc2cccc(Cl)c2)NCCOc2ccccc2CCCNC1=O` [Compound 15] has a Ki [1, 3] of 1 to 100 nM.
`CCCC1NC(=O)C(C2CCCCC2)NC(=O)C(Cc2ccc(O)cc2)NCCOc2ccccc2CCCNC1=O` (stereo not shown) [Compound 97] gave a Ki [1, 3] of 1000 to 10000 nM.
`CC(C)C1NC(=O)C(Cc2ccc(O)cc2)NCCOc2ccccc2C=CCNC(=O)C(C(C)C)NC1=O` (stereo not shown) [Compound 9] gave a Ki [1, 3] of 100 to 1000 nM.
Work on `CCC[C@@H]1NC(=O)[C@@H](C(C)C)NC(=O)[C@@H](Cc2ccc(OC)cc2)NCCOc2ccccc2CCCNC1=O` [Compound 22] yielded a Ki [1, 3] of 1 to 100 nM.
`CCC[C@@H]1NC(=O)[C@@H](C(C)C)NC(=O)[C@@H](Cc2ccc(Cl)c(Cl)c2)NCCOc2ccccc2CCCNC1=O` [Compound 170] was tested, and the Ki [1, 3] was 1 to 100 nM.
Compound `CCC[C@@H]1NC(=O)[C@@H](C(C)C)NC(=O)[C@@H](Cc2cccc(C)c2)NCCOc2ccccc2CCCNC1=O` [Compound 163] has a Ki [1, 3] of 1 to 100 nM.
With `CC(C)[C@H]1NC(=O)[C@@H](Cc2cccc(Cl)c2)NCCOc2ccccc2CCCNC(=O)[C@H](CN)NC1=O` [Compound 155] the Ki [1, 3] was 1 to 100 nM.
Compound `CCCC1NC(=O)CCNC(=O)C(Cc2ccc(O)cc2)NCCOc2ccccc2CCCNC1=O` (stereo not shown) [Compound 96] has a Ki [1, 3] of 1000 to 10000 nM.
`CCCC1NC(=O)C(C(C)C)NC(=O)C(Cc2cscn2)NCCOc2ccccc2CCCNC1=O` (stereo not shown) [Compound 27] gave a Ki [1, 3] of 100 to 1000 nM.
Work on `CCCC1NC(=O)C(C(C)C)NC(=O)C(Cc2cccnc2)NCCOc2ccccc2CCCNC1=O` (stereo not shown) [Compound 28] yielded a Ki [1, 3] of 100 to 1000 nM.
`CCC[C@@H]1NC(=O)[C@@H](C(C)C)NC(=O)[C@@H](Cc2ccc(F)cc2)NCCOc2ccccc2CCCNC1=O` [Compound 19] gave a Ki [1, 3] of 1 to 100 nM.
In the case of `CCCC1NC(=O)C(C)NC(=O)C(Cc2ccc(O)cc2)NCCOc2ccccc2C=CCNC1=O` (stereo not shown) [Compound 5], the Ki [1, 3] is reported as 100 to 1000 nM.
`CCCCC1NC(=O)C(C(C)C)NC(=O)C(Cc2ccc(O)cc2)NCCOc2ccccc2C=CCNC1=O` (stereo not shown) [Compound 7] was tested, and the Ki [1, 3] was 100 to 1000 nM.
Compound `CC(C)C1NC(=O)C(Cc2ccc(O)cc2)NCCOc2ccccc2C=CCNC(=O)C(Cc2c[nH]c3ccccc23)NC1=O` (stereo not shown) [Compound 59] has a Ki [1, 3] of 100 to 1000 nM.
`CC(C)CC1NC(=O)C(C(C)C)NC(=O)C(Cc2ccc(F)cc2)NCCOc2cccnc2CCCNC1=O` (stereo not shown) [Compound 140] gave a Ki [1, 3] of 100 to 1000 nM.
For `CC(C)C1NC(=O)C(Cc2cccc3ccccc23)NCCOc2ccccc2CCCNC(=O)C(CO)NC1=O` (stereo not shown) [Compound 179], the Ki [1, 3] was 100 to 1000 nM.
Compound `CC(C)[C@H]1NC(=O)[C@@H](Cc2cccc(Cl)c2)NCCOc2cccnc2CCCNC(=O)[C@H](CN)NC1=O` [Compound 158] has a Ki [1, 3] of 1 to 100 nM.
